Measured values reported in ChEMBL document CHEMBL1142392, “Synthesis and analysis of a fluorinated product analogue as an inhibitor for 1-deoxy-D-xylulose 5-phosphate reductoisomerase” (Bioorg Med Chem Lett, 2008).
Calls of active or inactive are those of the source. The calls are words filed in the database; no cut-off is given here.

Test: Inactivation of DXR

In the case of C[C@@](CO)(CF)[C@H](O)COP(=O)(O)O, the Activity is reported as “Active”.
